In patent US20210145768A1, “MODULATING IMMUNE RESPONSE VIA TARGETING OF OLFACTORY RECEPTOR ACTIVITY” (La Jolla Institute for Allergy and Immunology, priority 2018, published 2021):

Tests used:
[1] = biological target: T1, Olfr2 (Mus musculus, UniProt Q9QWU6); assay: IL-1β production in LPS-primed mouse BMDMs; format: cell-based; parameters: Olfr2 expression was confirmed at the protein level on F4/80^+ vascular macrophages; from tissue; host or cells: explanted whole aortas, digested aortic cell suspensions (F4/80+ vascular macrophages) and blood monocytes of Apoe-/- C57BL/6J mice; living Apoe-/- mice for the in vivo study
T1 sequence (Q9QWU6 1-327): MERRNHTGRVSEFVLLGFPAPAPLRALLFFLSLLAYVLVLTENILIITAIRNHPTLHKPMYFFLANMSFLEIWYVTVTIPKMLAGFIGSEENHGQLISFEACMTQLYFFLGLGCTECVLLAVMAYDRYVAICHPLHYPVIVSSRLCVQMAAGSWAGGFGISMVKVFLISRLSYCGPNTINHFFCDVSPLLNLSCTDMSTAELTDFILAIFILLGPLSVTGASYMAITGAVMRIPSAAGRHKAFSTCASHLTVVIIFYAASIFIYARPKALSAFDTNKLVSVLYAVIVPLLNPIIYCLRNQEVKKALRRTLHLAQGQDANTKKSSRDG
Procedure: Macrophages are known producers of one of the most prominent cytokines driving atherosclerosis, IL-1β^29. IL-1β production and secretion requires assembly of the inflammasome, a cytoplasmic complex containing several proteins that serves as a molecular platform for activation of the cysteine protease caspase^30,31. To test whether octanal induced IL-1β secretion in macrophages, BMDMs were primed with low-dose LPS (50 ng/mL) for 18 h followed by exposure to octanal alone or together with citral. IL-1β protein in the supernatant was quantified by a cytokine bead array. Data are presented as mean±SEM. *p<0.05, **p<0.01, ***p<0.005, ****p<0.001. p calculated by One-Way ANOVA test, Tukey's multiple comparisons test and unpaired t-test.
Mouse BMDMs and human MDMs were pretreated with LPS (50 ng/mL) or left untreated for 18 h at 37° C. and 5% CO2. […]
Supernatants of stimulated cells and aortic tissue were analyzed by BD CBA Flex Sets (BD Biosciences) for mouse TNFα, CCL2, CCL4, IL-1β, or human TNF, IL6, and IL-1β according to the manufacturer's protocol. Samples were analyzed with LSR-II (BD Biosciences). Data was acquired with FACSDiva software (BD Biosciences) and analyzed with FCAP array software 3.0 (BD Biosciences).

[2] = tested on: Olfr2; assay: Olfr2, Rtp1 and Rtp2 mRNA expression (qPCR) in explanted aortas; format: cell-based, mouse
From the text: Next, Olfr2 expression in aortas harvested from western-type diet (WD)-fed male mice (n=5) was investigated^18. Briefly, whole aortas were harvested from Apoe^−/− mice fed western-like diet (WD) for 2 weeks and treated as described above. Relative expression of Olfr2 quantified by real time PCR analysis of Olfr2 expression normalized to expression of Gapdh and untreated control.
In addition, Rtp1 and Rtp2 expression in aortas harvested from Apoe−/− mice was investigated. Briefly, explanted aortas of Apoe−/− mice treated for 12h with Oct (10 μM) and/or lipopolysaccharide (LPS, 500 ng/mL). Rtp1 and Rtp2 expression was assessed by qPCR as described above. N=3 independent experiments (relative expression calculated by 2^−ΔΔCt method). Data are presented as means±SEM. *p<0.05, **p<0.01, ***p<0.005, ****p<0.001. p calculated by One-Way ANOVA test, Tukey's multiple comparisons test.
BMDMs and hMDMs were incubated in culture media for 12 h at 37° C. and 5% CO2 with Oct, (10 μM), LPS (500 ng/mL) alone or combined with Oct (LPS+Oct) and DMSO (0.1%) as a control and lysed with Qiazol (500 μL; Qiagen) Similarly, whole aortas incubated as previously described were transferred into Qiazol (500 μl; Qiagen) and digested with gentleMACS™ Dissociator (Miltenyi).
Total RNA was quantified using a nanodrop spectrophotometer (Peqlab) and 500 ng were reverse transcribed into cDNA using Omniscript reverse transcriptase (Qiagen). Real time PCR reactions were performed according to the RT^2 SYBR green gene expression assay protocol (Qiagen). RT2 SYBR Green qPCR master mix and premade RT^2 qPCR Primer Assays for mouse Olfr2, Rtp1, Rtp2, Ccl2, Ccl4, Tnf, Nos2 and Gapdh were used. Similarly, real time PCR analysis of hMDMs samples was performed following the RT^2 SYBR green gene expression assay protocol (Qiagen), applying RT^2 SYBR Green qPCR master mix and premade RT^2 qPCR Primer Assays for human OR6A2, TNF, IL-6, NOS2 and GAPDH. The results were calculated applying the 2^−ΔΔCT method^32 using Gapdh/GAPDH as housekeeping gene.

CC(C)=CCCC(C)=CC=O [citral]
octanal-induced IL-1β release, mouse BMDMs ([1]; LPS priming, octanal 10 μM + citral 100 μM): inhibited | Olfr2 mRNA expression ([2]; citral, data not shown): did not affect

CCCCCCCC=O [octanal]
release of IL-1β into the supernatant, mouse BMDMs ([1]; LPS 50 ng/mL 18 h priming, then octanal 10 μM): strongly increased | aortic Olfr2, Rtp1 and Rtp2 mRNA ([2]; LPS 500 ng/mL + octanal 10 μM ex vivo, 12 h): significantly enhanced | Olfr2 expression (qRT-PCR) ([2]; LPS + octanal): further increased | Olfr2 expression (qRT-PCR) ([2]; octanal alone): no effect
